Reference: US20250084074A1, “SUBSTITUTED HETEROCYCLES AS HSET INHIBITORS” (MERCK PATENT GMBH, priority 2022, published 2025)
Where a name gives a salt, the structure may show the parent alone.

These molecules were tested against HSET full length protein (Homo sapiens (Human), UniProt Q9BW19) (assay: HSET ADP-Glo Assay S - 3 μM ATP). Details: 5 nM HSET, 70 μg/mL microtubule, 80 min at rt, read-out: COMBINED HSET ADP GLO IC50.
Format: biochemical
Method in brief: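 Full-length human HSET (5 nM) with paclitaxel-stabilised bovine brain microtubules (70 μg/mL) in HEPES pH 6.8 buffer was preincubated 10 min with compound. ATP at 3 μM started the reaction, which ran 80 min at rt. ADP formed was measured by ADP-Glo luminescence.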

HSET full length protein, sequence (Q9BW19 whole entry): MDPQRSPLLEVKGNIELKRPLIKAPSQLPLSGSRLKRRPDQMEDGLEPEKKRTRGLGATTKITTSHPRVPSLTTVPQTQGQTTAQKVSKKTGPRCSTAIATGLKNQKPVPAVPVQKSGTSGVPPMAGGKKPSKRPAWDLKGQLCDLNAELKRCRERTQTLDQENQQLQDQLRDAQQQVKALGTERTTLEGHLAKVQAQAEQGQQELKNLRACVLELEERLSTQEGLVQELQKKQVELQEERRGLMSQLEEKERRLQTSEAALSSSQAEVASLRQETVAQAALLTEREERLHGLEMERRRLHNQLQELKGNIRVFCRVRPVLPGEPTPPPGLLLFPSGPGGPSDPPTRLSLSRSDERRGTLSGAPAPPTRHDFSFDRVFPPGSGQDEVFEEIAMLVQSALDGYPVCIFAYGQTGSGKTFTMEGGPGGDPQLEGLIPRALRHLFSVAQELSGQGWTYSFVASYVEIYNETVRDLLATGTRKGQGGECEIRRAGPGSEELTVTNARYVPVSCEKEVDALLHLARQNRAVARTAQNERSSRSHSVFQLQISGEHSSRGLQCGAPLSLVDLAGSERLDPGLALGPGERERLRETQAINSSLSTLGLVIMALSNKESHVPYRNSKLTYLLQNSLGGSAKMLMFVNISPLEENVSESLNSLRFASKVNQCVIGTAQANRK

Row | Compound | IC50 [nM]
1 | Cc1nc(NC(=O)[C@H]2C[C@@H](Nc3nccc4ccc(Cl)cc34)C2)sc1C(=O)OC(C)(C)C [Example 108, tert-Butyl 2-((1s,3s)-3-((7-chloroisoquinolin-1-yl)amino)cyclobutane-1-carboxamido)-4-methylthiazole-5-carboxylate] | 1620
2 | CCCOC(=O)c1sc(NC(=O)CC2(NC(=O)c3cc(Cl)cc(-c4noc(C)n4)c3)CCN(C)CC2)nc1C [Example 144, Propyl-2-(2-(4-(3-chloro-5-(5-methyl-1,2,4-oxadiazol-3-yl)benzamido)-1-methylpiperidin-4-yl)acetamido)-4-methylthiazole-5-carboxylate] | 9200
3 | CCCOC(=O)c1sc(NC(=O)C[C@@H](CCCNC)NC(=O)c2cccc(-c3noc(C)n3)c2)nc1C [Example 153, Propyl-(R)-4-methyl-2-(3-(3-(5-methyl-1,2,4-oxadiazol-3-yl)benzamido)-6-(methylamino)hexanamido)thiazole-5-carboxylate] | 285
4 | CCOC(=O)c1sc(NC(=O)C[C@H](C)NC(=O)c2cccc(-c3noc(C)n3)c2)nc1C [Example 143, Ethyl-(S)-4-methyl-2-(3-(3-(5-methyl-1,2,4-oxadiazol-3-yl)benzamido)butanamido)thiazole-5-carboxylate] | 61
5 | Cc1nc(-c2ccc3ccnc(NC[C@@H](O)C(=O)Nc4nc(C)c(CC(C)C)s4)c3c2)no1 [Example 191, (R)-2-hydroxy-N-(5-isobutyl-4-methylthiazol-2-yl)-3-((7-(5-methyl-1,2,4-oxadiazol-3-yl)isoquinolin-1-yl)amino)propenamide] | 284
6 | CCOC(=O)c1sc(NC(=O)CCNC(=O)c2cccc(-c3noc(C)n3)c2)nc1C(F)(F)F [Example 91, Ethyl 2-[3-[[3-(5-methyl-1,2,4-oxadiazol-3-yl)benzoyl]amino]propanoylamino]-4-(trifluoromethyl)thiazole-5-carboxylate] | 415
7 | CCOC(=O)c1sc(NC(=O)CCNC(=O)c2cccc(-c3nnn(C)n3)c2)nc1C [Example 38, Ethyl 4-methyl-2-(3-(3-(2-methyl-2H-tetrazol-5-yl)benzamido)propanamido)thiazole-5-carboxylate] | 27
8 | CCCOC(=O)n1cc(NC(=O)CCNc2nccc3ccc(-c4cnn(C)c4)cc23)nc1C [Example 262, Propyl 2-methyl-4-(3-{[7-(1-methyl-1 H-pyrazol-4-yl)isoquinolin-1-yl]amino}propanamido)-1 H-imidazole-1-carboxylate] | 1000
9 | Cc1nc(-c2ccc3ccnc(N[C@H]4C[C@@H](C(=O)Nc5nc(Cl)c(C(=O)NC(C)(C)C)s5)C4)c3c2)no1 [Example 113, N-tert-butyl-4-chloro-2-[[3-[[7-(5-methyl-1,2,4-oxadiazol-3-yl)-1-isoquinolyl]amino]cyclobutanecarbonyl]amino]thiazole-5-carboxamide] | 1380
10 | Cc1nc(-c2cccc(C(=O)N[C@@H](CC#N)CC(=O)Nc3nc(C)c(C(=O)OC(C)(C)C)s3)c2)no1 [Example 193, tert-Butyl 2-[(3S)-4-cyano-3-{[3-(5-methyl-1,2,4-oxadiazol-3-yl)phenyl]form, amido}-butanamido]-4-methyl-1,3-thiazole-5-carboxylate] | 5
11 | CCOC(=O)c1sc(NC(=O)CCNc2nccc3ccc(-c4noc(C)n4)cc23)nc1C [Example 45, Ethyl 4-methyl-2-[3-[[7-(5-methyl-1,2,4-oxadiazol-3-yl)-1-isoquinolyl]amino]propanoylamino]thiazole-5-carboxylate] | 5
12 | CCCCCc1cc(NC(=O)[C@@H](O)CNc2nccc3ccc(-c4noc(C)n4)cc23)nn1C [Example 188, (S)-2-hydroxy-3-((7-(5-methyl-1,2,4-oxadiazol-3-yl)isoquinolin-1-yl)amino)-N-(1-methyl-5-pentyl-1 H-pyrazol-3-yl)propenamide] | 270
13 | Cc1nc(-c2ccc3ccnc(N[C@H]4C[C@@H](C(=O)Nc5nc(C)c(C(C)(C)C)s5)C4)c3c2)no1 [Example 98, (1 s,3s)-N-(5-(tert-butyl)-4-methylthiazol-2-yl)-3-((7-(5-methyl-1,2,4-oxadiazol-3-yl)isoquinolin-1-yl)amino)cyclobutane-1-carboxamide] | 72
14 | CCc1cc(NC(=O)CCNc2nccc3ccc(-c4noc(C)n4)cc23)nn1C [Example 76] | 8310
15 | CCOC(=O)c1sc(NC(=O)CCNC(=O)c2cc(/C=C/c3ccccc3)cc(C(=O)OC)c2)nc1C [Example 22, Ethyl 2-[3-[[3-methoxycarbonyl-5-[(E)-styryl]benzoyl]amino]-propanoylamino]-4-methyl-thiazole-5-carboxylate] | 6350
16 | CCCOC(=O)n1cc(NC(=O)[C@@H](O)CNC(=O)c2cccc(-c3cnn(C)c3)c2)nc1C [Example 267] | 380
17 | CCOC(=O)n1cc(NC(=O)CCNc2nccc3ccc(-c4cnn(C)c4)cc23)nc1C [Example 261, Ethyl 2-methyl-4-(3-{[7-(1-methyl-1 H-pyrazol-4-yl)isoquinolin-1-yl]amino}propanamido)-1 H-imidazole-1-carboxylate] | 13000

Row | Compound | IC50 [nM]
18 | CCCOC(=O)c1sc(NC(=O)C[C@H](CCCN(C)C)NC(=O)c2cccc(-c3noc(C)n3)c2)nc1C [Example 158, Propyl (S)-2-(6-(dimethylamino)-3-(3-(5-methyl-1,2,4-oxadiazol-3-yl)benzamido)hexanamido)-4-methylthiazole-5-carboxylate] | 11
19 | Cc1nc(-c2ccc3ccnc(NC[C@H](O)C(=O)Nc4nc(C)c(C(=O)OC(C)(C)C)s4)c3c2)no1 [Example 180, tert-Butyl (S)-2-(2-hydroxy-3-((7-(5-methyl-1,2,4-oxadiazol-3-yl)isoquinolin-1-yl)amino)propanamido)-4-methylthiazole-5-carboxylate] | 2
20 | CCOC(=O)c1sc(NC(=O)CCNC(=O)c2cccc(-c3noc(C)n3)c2)nc1C(C)C [Example 88, Ethyl 4-isopropyl-2-[3-[[3-(5-methyl-1,2,4-oxadiazol-3-yl)benzoyl]amino]propanoylamino]thiazole-5-carboxylate] | 477
21 | Cc1nc(-c2ccc3ccnc(NC4CN(C(=O)Nc5nc(C)c(C(C)(C)C)s5)C4)c3c2)no1 [Example 232, N-(5-(tert-butyl)-4-methylthiazol-2-yl)-3-((7-(5-methyl-1,2,4-oxadiazol-3-yl)isoquinolin-1-yl)amino)azetidine-1-carboxamide] | 44
22 | CCCCc1sc(NC(=O)CCNC(=O)c2cccc(-c3noc(C)n3)c2)nc1C [Example 64, N-(3-((5-butyl-4-methylthiazol-2-yl)amino)-3-oxopropyl)-3-(5-methyl-1,2,4-oxadiazol-3-yl)benzamide] | 348
23 | Cc1nc(NC(=O)CCNC(=O)c2cccc(-c3cnn(C)c3)c2)sc1C(=O)OC(C)(C)C [Example 89, tert-Butyl-4-methyl-2-(3-(3-(1-methyl-1 H-pyrazol-4-yl)benzamido)propanamido)thiazole-5-carboxylate] | 391
24 | CNCCC[C@@H](CC(=O)Nc1nc(C)c(C(=O)OC(C)C)s1)NC(=O)c1cccc(-c2noc(C)n2)c1 [Example 156, Isopropyl (S)-4-methyl-2-(3-(3-(5-methyl-1,2,4-oxadiazol-3-yl)benzamido)-6-(methylamino)hexanamido)thiazole-5-carboxylate] | 53
25 | COC(=O)c1cc(NC(=O)CCNC(=O)c2cccc(-c3noc(C)n3)c2)nn1C [Example 128, Methyl-2-methyl-5-[3-[[3-(5-methyl-1,2,4-oxadiazol-3-yl)benzoyl]amino]propanoylamino]pyrazole-3-carboxylate] | 14100
26 | Cc1nc(-c2ccc3ccnc(N[C@@H](CCCN)CC(=O)Nc4nc(C)c(C(C)(C)C)s4)c3c2)no1 [Example 164, (S)-6-amino-N-(5-(tert-butyl)-4-methylthiazol-2-yl)-3-((7-(5-methyl-1,2,4-oxadiazol-3-yl)isoquinolin-1-yl)amino)hexanamide formate] | 116
27 | Cc1nc(N(C)C(=O)C[C@@H](CC#N)NC(=O)c2cccc(-c3cnn(C)c3)c2)sc1C(=O)OC(C)C [Example 206] | 9300
28 | CCCOC(=O)c1sc(NC(=O)CCNC(=O)c2cc(C(=O)OC)cc(-c3noc(C)n3)c2)nc1C [Example 44, Propyl 2-(3-(3-(methoxycarbonyl)-5-(5-methyl-1,2,4-oxadiazol-3-yl)benzamido)propanamido)-4-methylthiazole-5-carboxylate] | 281
29 | CCOC(=O)c1sc(NC(=O)CCNC(=O)c2cc(C)cc(C(=O)OC)c2)nc1C [Example 15, Ethyl 2-[3-[(3-methoxycarbonyl-5-methyl-benzoyl)amino]propanoylamino]-4-methyl-thiazole-5-carboxylate] | 9
30 | CCOC(=O)c1sc(N(C)C(=O)CCNC(=O)c2cccc(-c3noc(C)n3)c2)nc1C [Example 219, Ethyl 4-methyl-2-(N-methyl-3-(3-(5-methyl-1,2,4-oxadiazol-3-yl)benzamido)propanamido)thiazole-5-carboxylate] | 89
31 | COC(=O)c1sc(NC(=O)C[C@@H](CC#N)NC(=O)c2cccc(-c3noc(C)n3)c2)nc1C [Example 198] | 181
32 | Cc1nc(NC(=O)C[C@H](CC#N)Nc2nccc3ccc(-c4cnn(C)c4)cc23)sc1C(=O)OC(C)C [Example 210, Propan-2-yl 2-[(3S)-4-cyano-3-{[7-(1-methyl-1 H-pyrazol-4-yl)isoquinolin-1-yl]amino}butanamido]-4-methyl-1,3-thiazole-5-carboxylate] | 700
33 | Cc1nc(-c2ccc3ccnc(N[C@H]4C[C@@H](C(=O)Nc5nc(C)c(C(=O)O[C@H](C)C(F)(F)F)s5)C4)c3c2)no1 (stereo in doubt) [Example 114, [(1 R)-2,2,2-trifluoro-1-methyl-ethyl]4-methyl-2-[[3-[[7-(5-methyl-1,2,4-oxadiazol-3-yl)-1-isoquinolyl]amino]cyclobutanecarbonyl]amino]thiazole-5-carboxylate] | 17
